{
  "source": "patent US8497380B2",
  "about": "“Substituted acetophenones useful as PDE4 inhibitors” (Leo Pharma A/S, priority 2006, dated 2013)",
  "data": [
    {"tested_on": "Human peripheral blood mononuclear cells (PBMC)", "experiment": "TNFalfa-Release", "type": "cell-based", "conditions": "inhibition of TNF-a secretion, PBMC pre-incubated 30 minutes, stimulated 18 hours with lipopolysaccharide", "method": "Human peripheral blood mononuclear cells (PBMC) are Isolated from buffy coats. The blood is mixed with saline at a ratio of 1:1, and the PBMC is isolated by the use of Lymphoprep Tubes™ (Nycomed, Norway). The PBMC is suspended in RPMI1640 with 2% foetal calf serum (FCS), pen/strep and 2 mM L-glutamine at a concentration of 5×105 c/ml. The cells are pre-incubated for 30 minutes with the test compounds in 96 well tissue culture plates and stimulated for 18 hours with lipopolysaccharide 1 mg/ml (Sigma). The level of TNF-a is measured in the culture supernatant by enzyme immuno assays using primary and secondary biotinylated antibodies from R&D systems. Results are expressed as pIC50 values calculated from inhibition curves using as positive controls the secretion in LPS stimulated wells and as negative controls the secretion in unstimulated cells.", "units": {"IC50": "nM"}, "values": [
      {"smiles": "COc1ccc(C(=O)Cc2c(Cl)cncc2Cl)c(O)c1OC", "note": "[Compound 101, 2-(3,5-Dichloro-pyridin-4-yl)-1-(2-hydroxy-3,4-dimethoxy-phenyl)-ethanone]", "IC50": "< 1000"},
      {"smiles": "CCOc1c(OC)ccc(C(=O)Cc2c(Cl)cncc2Cl)c1OCC", "note": "[Compound 104, 2-(3,5-Dichloro-pyridin-4-yl)-1-(2,3-diethoxy-4-methoxy-phenyl)-ethanone]", "IC50": "< 1000"},
      {"smiles": "C=CCOc1c(OC)ccc(C(=O)Cc2c(Cl)cncc2Cl)c1OCC=C", "note": "[Compound 106, 1-(2,3-Bis-allyloxy-4-methoxy-phenyl)-2-(3,5-dichloro-pyridin-4-yl)-ethanone]", "IC50": "< 1000"},
      {"smiles": "COc1ccc(C(=O)Cc2c(Cl)cncc2Cl)c(OC(F)F)c1OC(F)F", "note": "[Compound 107, 1-(2,3-Bis-difluoromethoxy-4-methoxy-phenyl)-2-(3,5-dichloro-pyridin-4-yl)-ethanone]", "IC50": "< 1000"},
      {"smiles": "COc1ccc(C(=O)Cc2c(Cl)cncc2Cl)c(OCc2cc(C)on2)c1OC", "note": "[Compound 108, 2-(3,5-Dichloro-pyridin-4-yl)-1-[3,4-dimethoxy-2-(5-methyl-isoxazol-3-ylmethoxy)-phenyl]-ethanone]", "IC50": "< 1000"},
      {"smiles": "COCCOc1c(C(=O)Cc2c(Cl)cncc2Cl)ccc(OC)c1OC", "note": "[Compound 109, 2-(3,5-Dichloro-pyridin-4-yl)-1-[3,4-dimethoxy-2-(2-methoxy-ethoxy)-phenyl]-ethanone]", "IC50": "< 1000"},
      {"smiles": "CC#CCOc1c(C(=O)Cc2c(Cl)cncc2Cl)ccc(OC)c1OC", "note": "[Compound 110, 1-(2-But-2-ynyloxy-3,4-dimethoxy-phenyl)-2-(3,5-dichloro-pyridin-4-yl)-ethanone]", "IC50": "< 1000"},
      {"smiles": "COc1ccc(C(=O)Cc2c(Cl)cncc2Cl)c(OCC=C(C)C)c1OC", "note": "[Compound 111, 2-(3,5-Dichloro-pyridin-4-yl)-1-[3,4-dimethoxy-2-(3-methyl-but-2-enyloxy)-phenyl]-ethanone]", "IC50": "< 1000"},
      {"smiles": "COc1ccc(C(=O)Cc2c(Cl)cncc2Cl)c(OCCc2ccccc2)c1OC", "note": "[Compound 112, 2-(3,5-Dichloro-pyridin-4-yl)-1-(3,4-dimethoxy-2-phenethyloxy-phenyl)-ethanone]", "IC50": "< 1000"},
      {"smiles": "COc1ccc(C(=O)Cc2c(Cl)cncc2Cl)c(OCc2ccccc2)c1OC", "note": "[Compound 113, 1-(2-Benzyloxy-3,4-dimethoxy-phenyl)-2-(3,5-dichloro-pyridin-4-yl)-ethanone]", "IC50": "< 1000"},
      {"smiles": "C=CCOc1c(C(=O)Cc2c(Cl)cncc2Cl)ccc(OC)c1OC", "note": "[Compound 114, 1-(2-Allyloxy-3,4-dimethoxy-phenyl)-2-(3,5-dichloro-pyridin-4-yl)-ethanone]", "IC50": "< 1000"},
      {"smiles": "COc1ccc(C(=O)Cc2c(Cl)cncc2Cl)c(OCc2nc3ccccc3o2)c1OC", "note": "[Compound 115, 1-[2-(Benzooxazol-2-ylmethoxy)-3,4-dimethoxy-phenyl]-2-(3,5-dichloro-pyridin-4-yl)-ethanone]", "IC50": "< 1000"},
      {"smiles": "COc1ccc(C(=O)Cc2c(Cl)cncc2Cl)c(OCc2csc(C)n2)c1OC", "note": "[Compound 116, 2-(3,5-Dichloro-pyridin-4-yl)-1-[3,4-dimethoxy-2-(2-methyl-thiazol-4-ylmethoxy)-phenyl]-ethanone]", "IC50": "< 1000"},
      {"smiles": "COc1ccc(C(=O)Cc2c(Cl)cncc2Cl)c(OCc2nnc(C3CC3)s2)c1OC", "note": "[Compound 117]", "IC50": "< 1000"},
      {"smiles": "COc1ccc(C(=O)Cc2c(Cl)cncc2Cl)c(OCc2ncon2)c1OC", "note": "[Compound 118, 2-(3,5-Dichloro-pyridin-4-yl)-1-[3,4-dimethoxy-2-([1,2,4]oxadiazol-3-ylmethoxy)-phenyl]-ethanone]", "IC50": "< 1000"},
      {"smiles": "CCOC(=O)COc1c(C(=O)Cc2c(Cl)cncc2Cl)ccc(OC)c1OC", "note": "[Compound 119, {6-[2-(3,5-Dichloro-pyridin-4-yl)-acetyl]-2,3-dimethoxy-phenoxy}-acetic acid ethyl ester]", "IC50": "< 1000"},
      {"smiles": "COc1ccc(C(=O)Cc2c(Cl)cncc2Cl)c(OCCc2ccc(Cl)cc2)c1OC", "note": "[Compound 120, 1-{2-[2-(4-Chloro-phenyl)-ethoxy]-3,4-dimethoxy-phenyl}-2-(3,5-dichloro-pyridin-4-yl)-ethanone]", "IC50": "< 1000"}
    ]}
  ]
}
